Experiments:
[1] = system: CYP3A4 inducibility (luciferase reporter AdCYP3A4-362-7K with hPXR expression); experiment: in vitro reporter assay, cultured cells infected with virus (A) (AdCYP3A4-362-7K) and virus (B) (AdhPXR); details: 10 μM, virus (A) AdCYP3A4-362-7K plus virus (B) AdhPXR
Experimental: (§1) A recombinant adenovirus was constructed through the following process.
(§2) Briefly, cells were seeded in a 24-well plate in an amount of 2.0×10^5 cells per well. On the following day; i.e., day 1, the cells were treated with a drug. On day 2, the drug-treated cells were infected with virus, and, 48 hours after viral infection, the cells were recovered. The recovered cells were lysed by use of a reporter lysis buffer (RLB), and the luciferase activity of the lysate was measured.
(§3) Next, virus (B) (AdhPXR) was employed to thereby cause strong expression of hPXR.

[2] = system: CYP3A4 inducibility (luciferase reporter, CYP3A4 -362 to +11 fragment); experiment: in vitro reporter (luciferase) assay, cultured cells infected with AdCYP3A4-362 virus; details: 10 μM in DMSO, human liver-cancer-derived cultured cells
Experimental: as §1, §2
All these drugs are known to elicit CYP3A4 induction when administered to humans.

[3] = system: CYP3A4 inducibility (luciferase reporter AdCYP3A4-362-7K); experiment: in vitro reporter assay, cultured cells infected with virus (A) (AdCYP3A4-362-7K); details: 10 μM, without virus (B)
Experimental: as §1, §2, §3

[4] = system: human CYP3A4 inducibility (luciferase reporter AdCYP3A4-362-7K with human PXR expression); experiment: in vivo assay, mice infected with virus (A) (AdCYP3A4-362-7K) and virus (B) (AdhPXR); details: 100 mg/kg/day×3; virus (A) AdCYP3A4-362-7K, co-administration with virus (B) per FIG. 8
Experimental: (§4) The initial plan for viral administration was an intravenous route through the tail vein. […] Therefore, the route was changed to intraperitoneal administration so that the animal could not acutely respond to the virus. […] Two days after virus administration, each animal was dissected to remove the organ of interest (liver). The liver was homogenized and centrifuged at 9,000×g. Luciferase activity of the supernatant (S-9) was measured (FIG. 4).

[5] = system: CYP3A4 inducibility (luciferase reporter AdCYP3A4-362); experiment: in vivo assay, luciferase activity in liver S-9 of mice given AdCYP3A4-362 virus; details: 100 mg/kg intraperitoneally once a day for three days, liver two days after virus
Experimental: as §4

For `Clc1ccccc1C(c1ccccc1)(c1ccccc1)n1ccnc1` [clotrimazole], the “luciferase activity relative to non-treatment” value [1] was 60 times, the “elevated luciferase activity level” value [2] was “about eight” and the “induction of luciferase activity” value [3] was 21 times. For the same compound, the “attained inducibility (transcription activation) in mice infected with virus (A)” value [4] was 1,000 times and the “increase of luciferase activity in mouse liver S-9 compared with control” value [5] was “about nine”.

Source: patent publication US20140363810A1, “METHOD OF MEASURING HUMAN CYP3A INDUCIBILITY” (SEKISUI MEDICAL CO., LTD., priority 2002, published 2014)
